Columns and labels:
[1] = system: swine nematode (nematodes in the digestive tract); assay: Repelling swine nematode in naturally infected pigs (fecal egg count, McMaster's method); assay type: in vivo; conditions: 1% injection 0.2 mg/kg bw s.c.
Description: (§1) Test agents: 1% ivermectin injection, 1% tenvermectin A injection, and 1% tenvermectin B injection as obtained in Example 1.
(§2) Test animals and grouping: pigs cultured in the same farm were selected, and 40 pigs naturally infected with nematodes in the digestive tract were selected for testing through fecal examination. The average weight of the test pigs was 30-50 kg. Forty pigs were randomly divided into 4 groups, 10 for each group. The first group was the ivermectin control group, the second group was the tenvermectin A group, and the third group was the tenvermectin B group. All the medicated groups were injected subcutaneously in the neck according to 0.2 mg/kg·bw. The forth group was a blank group and was not administered.
(§3) 1) The feces of the pigs in each group were collected and examined one by one a day before administration, and worm eggs were counted by the McMaster's method. The number of eggs per gram of feces (EPG) was counted and the condition of Haematopinus on the body surface was observed.
(§4) 2) 1, 2, 3 and 4 weeks after administration, the feces of the pigs in each group were examined by the McMaster's method, and the EPG was counted and the changes of Haematopinus on the body surface were observed.
3) The negative conversion rates and egg reduction rates of the test pigs were calculated by a conventional method to assess the efficacy of repelling swine nematode.

swine Haematopinus = assay: Killing effect on swine Haematopinus on the body surface; assay type: in vivo; conditions: pigs, 1% injection 0.2 mg/kg bw s.c., until the 7th day and in the following 3 weeks
Description: as §1, §2, §3, §4
4) The killing effects of swine Haematopinus of the agents were assessed according to the survival of swine Haematopinus on the 7th day after administration.

[2] = system: digestive tract nematodes; assay: Repelling nematode in digestive track of sheep (fecal egg count); assay type: in vivo; conditions: for Number of sheep negatively conversed: sheep (20 per group); for Number of sheep negatively conversed / Egg reduction rate (%) / Negative conversion rate (%): 1% injection 0.2 mg/kg bw s.c.; for Number of sheep negatively conversed / Egg reduction rate (%) / Negative conversion rate (%) / EPG after administration: 9th day after administration; for Egg reduction rate (%) / Negative conversion rate (%) / EPG after administration / EPG before administration: sheep; for EPG after administration / EPG before administration: eggs per gram of feces; for EPG after administration: 0.2 mg/kg bw s.c.; for EPG before administration: baseline a day before administration
Description: as §1
Test animals and grouping: sheep grazed under the same condition were selected, and 80 sheep of 0.8-2.0 years old naturally infected with digestive tract nematodes were selected through fecal examination. The average weight of the test sheep was 30 kg. The 80 sheep were randomly divided into 4 groups, 20 heads for each group. The first group was the ivermectin control group, the second group was the tenvermectin A group, and the third group was the tenvermectin B group. All the medicated groups were injected subcutaneously in the neck according to 0.2 mg/kg·bw. The fourth group was a blank group and was not medicated.
1) The feces of the sheep in each group were collected and examined one by one a day before administration, and the worm eggs were counted by the McMaster's method, and the number of eggs per gram of feces (EPG) was counted.
2) On the 9th day after administration, the sheep of each group were subjected to a fecal examination by McMaster's method, and EPG was counted.
3) The egg negative conversion rates and egg reduction rates were calculated according to a conventional method to assess the efficacy.

zebrafish = assay: Toxicity to zebrafish, semi-static method, 96 hours
Procedure: Test agents: avermectin, milbemycin, ivermectin, tenvermectin A and tenvermectin B were all from Zhejiang Hisun Pharmaceutical Co., Ltd. The samples were formulated into 50 mg/ml mother liquors with DMF.
Test fish and water: zebrafish (Brachydanio rerio) was purchased from Zhejiang Academy of Agricultural Sciences, with the same size, average body length of 2-3 cm and average body weight of 0.3 g. The zebrafish was domesticated for 7 days indoors before the test. […] Feeding was stopped 1 day before the test and the fish were not fed during the test. The test water was tap water with residual chlorine removed by exposure to the sun for more than 24 hours, and the pH thereof was 6.8.
Test methods: semi-static method. Three level differences were provided for each sample: 0.5 ppm, 1.0 ppm and 1.5 ppm, and three parallel groups were provided for each level difference, 10 zebrafish were raised for each group, and blank controls (one group without agents and one group with only solvent) were provided. The corresponding volume of mother liquor was taken according to the concentration as required for each sample, and the volume of each sample was adjusted to 150 μl with DMF, and then each sample was added to the test group (containing 1.6 L of water). The room temperature was controlled at 22±2° C. for 96 hours, and the water was changed every 24 hours and the samples were re-added. The fish mortality rate was recorded for the first 8 hours and at 24, 48, 72 and 96 hours, and the dead fish were removed in time.

[3] = system: allogynogenetic crucian carp; assay: Toxicity to allogynogenetic crucian carp, semi-static method, 96 hours; assay type: in vivo; conditions: allogynogenetic crucian carp
Description: Test fish and water: allogynogenetic crucian carp was purchased from Taowang Farm in Jiaojiang District, Taizhou City, with a body length of (9.60±0.52) cm and a body weight of (28.22±3.44) g. The healthy and vigorous fish with the same size were selected and temporarily raised in an indoor aquarium. They were domesticated for 7 days indoors before the test. The natural mortality rate was zero.
99.4% Tenvermectin A (the mass content of tenvermectin B was 0.02%) (Zhejiang Hisun Pharmaceutical Co., Ltd.);
Tenvermectin (the mass ratio of tenvermectin A/tenvermectin B was 95/5) (Zhejiang Hisun Pharmaceutical Co., Ltd.);
Tenvermectin (the mass ratio of tenvermectin A/tenvermectin B was 90/10) (Zhejiang Hisun Pharmaceutical Co., Ltd.);
Tenvermectin (the mass ratio of tenvermectin A/tenvermectin B was 85/15) (Zhejiang Hisun Pharmaceutical Co., Ltd.);
99.1% Tenvermectin B (the mass content of tenvermectin A was 0.51%) (Zhejiang Hisun Pharmaceutical Co., Ltd.);
92% Avermectin (Zhejiang Qianjiang Biochemical Co., Ltd.);
96% Ivermectin (Zhejiang Hisun Pharmaceutical Co., Ltd.);
90% Methylamino avermectin benzoate (Emamectin benzoate) (Zhejiang Shenghua Biok Biotechnology Co., Ltd.).
Method: semi-static method. […]

CC[C@H]1O[C@]2(CC[C@@H]1C)C[C@@H]1C[C@@H](C/C=C(\C)[C@@H](O[C@H]3C[C@H](OC)[C@@H](O[C@H]4C[C@H](OC)[C@@H](O)[C@H](C)O4)[C@H](C)O3)[C@@H](C)/C=C/C=C3\CO[C@@H]4[C@H](O)C(C)=C[C@@H](C(=O)O1)[C@]34O)O2 [Tenvermectin B, tenvermectin B]
Egg reduction rate (%) ([1]; 1st week after administration): 85.3% | Negative conversion rate (%) ([1]; 1st week after administration): 80% | Egg reduction rate (%) ([1]; 2nd week after administration): 100% | Negative conversion rate (%) ([1]; 2nd week after administration): 100% | Egg reduction rate (%) ([1]; 3rd week after administration): 100% | Negative conversion rate (%) ([1]; 3rd week after administration): 100% | Egg reduction rate (%) ([1]; 4th week after administration): 95.8% | Negative conversion rate (%) ([1]; 4th week after administration): 90% | active Haematopinus observed on the body surface (swine Haematopinus): no active Haematopinus was found | Number of sheep negatively conversed [2]: 20 | Egg reduction rate (%) [2]: 100% | Negative conversion rate (%) [2]: 100% | EPG after administration [2]: 0 | EPG before administration [2]: 12200 | Survival condition (survival rates/%) (zebrafish; 0.5 ppm, 8 h): 100% | Survival condition (survival rates/%) (zebrafish; 0.5 ppm, 24 h): 70% | Survival condition (survival rates/%) (zebrafish; 0.5 ppm, 48 h): 50% | Survival condition (survival rates/%) (zebrafish; 0.5 ppm, 72 h): 0% | Survival condition (survival rates/%) (zebrafish; 1.0 ppm, 8 h): 53% | Survival condition (survival rates/%) (zebrafish; 1.0 ppm, 24 h): 0% | Survival condition (survival rates/%) (zebrafish; 1.5 ppm, 8 h): 10% | Survival condition (survival rates/%) (zebrafish; 1.5 ppm, 24 h): 0% | toxicity to zebrafish, in words (zebrafish; in vivo): did not reach the level of middle toxic | Survival condition (survival rates/%) ([3]; 0.5 ppm, 8 h): 100% | Survival condition (survival rates/%) ([3]; 0.5 ppm, 24 h): 80% | Survival condition (survival rates/%) ([3]; 0.5 ppm, 48 h): 33% | Survival condition (survival rates/%) ([3]; 0.5 ppm, 72 h): 0% | Survival condition (survival rates/%) ([3]; 1.0 ppm, 8 h): 75% | Survival condition (survival rates/%) ([3]; 1.0 ppm, 24 h): 3% | Survival condition (survival rates/%) ([3]; 2.0 ppm, 8 h): 20% | Survival condition (survival rates/%) ([3]; 2.0 ppm, 24 h): 0%

COC1CC(OC2C(C)OC(OC3C(C)=CCC4CC(CC5(CCC(C)C(C)O5)O4)OC(=O)C4C=C(C)C(O)C5OCC(=CC=CC3C)C45O)CC2OC)OC(C)C1O (stereo not drawn) [Tenvermectin A, tenvermectin A]
Egg reduction rate (%) ([1]; 1st week after administration): 79.6% | Negative conversion rate (%) ([1]; 1st week after administration): 70% | Egg reduction rate (%) ([1]; 2nd week after administration): 89.5% | Negative conversion rate (%) ([1]; 2nd week after administration): 80% | Egg reduction rate (%) ([1]; 3rd week after administration): 98.6% | Negative conversion rate (%) ([1]; 3rd week after administration): 90% | Egg reduction rate (%) ([1]; 4th week after administration): 78.8% | Negative conversion rate (%) ([1]; 4th week after administration): 70% | active Haematopinus observed on the body surface (swine Haematopinus): no active Haematopinus was found | Number of sheep negatively conversed [2]: 20 | Egg reduction rate (%) [2]: 100% | Negative conversion rate (%) [2]: 100% | EPG after administration [2]: 0 | EPG before administration [2]: 11600 | Survival condition (survival rates/%) (zebrafish; 0.5 ppm, 8 h): 100% | Survival condition (survival rates/%) (zebrafish; 0.5 ppm, 24 h): 100% | Survival condition (survival rates/%) (zebrafish; 0.5 ppm, 48 h): 100% | Survival condition (survival rates/%) (zebrafish; 0.5 ppm, 72 h): 100% | Survival condition (survival rates/%) (zebrafish; 0.5 ppm, 96 h): 100% | Survival condition (survival rates/%) (zebrafish; 1.0 ppm, 8 h): 100% | Survival condition (survival rates/%) (zebrafish; 1.0 ppm, 24 h): 100% | Survival condition (survival rates/%) (zebrafish; 1.0 ppm, 48 h): 100% | Survival condition (survival rates/%) (zebrafish; 1.0 ppm, 72 h): 100% | Survival condition (survival rates/%) (zebrafish; 1.0 ppm, 96 h): 100% | Survival condition (survival rates/%) (zebrafish; 1.0 ppm, 96 h, listed as tenvermectin A): greater than 50% | Survival condition (survival rates/%) (zebrafish; 1.5 ppm, 8 h): 100% | Survival condition (survival rates/%) (zebrafish; 1.5 ppm, 24 h): 100% | Survival condition (survival rates/%) (zebrafish; 1.5 ppm, 48 h): 100% | Survival condition (survival rates/%) (zebrafish; 1.5 ppm, 72 h): 100% | Survival condition (survival rates/%) (zebrafish; 1.5 ppm, 96 h): 100% | 96-hour LC50 on zebrafish (zebrafish; 96 hours, semi-static): > 1 ppm | Survival condition (survival rates/%) ([3]; 0.5 ppm, 8 h): 100% | Survival condition (survival rates/%) ([3]; 0.5 ppm, 24 h): 100% | Survival condition (survival rates/%) ([3]; 0.5 ppm, 48 h): 100% | Survival condition (survival rates/%) ([3]; 0.5 ppm, 72 h): 100% | Survival condition (survival rates/%) ([3]; 0.5 ppm, 96 h): 100% | Survival condition (survival rates/%) ([3]; 1.0 ppm, 8 h): 100% | Survival condition (survival rates/%) ([3]; 1.0 ppm, 24 h): 100% | Survival condition (survival rates/%) ([3]; 1.0 ppm, 48 h): 100% | Survival condition (survival rates/%) ([3]; 1.0 ppm, 72 h): 100% | Survival condition (survival rates/%) ([3]; 1.0 ppm, 96 h): 100% | Survival condition (survival rates/%) ([3]; 2.0 ppm, 8 h): 100% | Survival condition (survival rates/%) ([3]; 2.0 ppm, 24 h): 100% | Survival condition (survival rates/%) ([3]; 2.0 ppm, 48 h): 100% | Survival condition (survival rates/%) ([3]; 2.0 ppm, 72 h): 100% | Survival condition (survival rates/%) ([3]; 2.0 ppm, 96 h): 100% | toxicity grade according to LC50 ([3]; 96-hour LC50): low toxic
